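Interpolation was linear, between the two tested concentrations surrounding the appropriate level; five concentrations were tested over 48 hours in 96-well plates. Abbreviation: GI50, concentration required for 50% inhibition of growth.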 The source made the active and inactive calls. Rule as the data show it: active = GI50 up to about 1.1 µM and inactive = higher.
Experiments:
Assay in all cases: NCI anticancer screen, dose series, 48 h
A498 = tested on: A498
MDA-MB-231 = tested on: MDA-MB-231
COLO 205 = tested on: COLO 205
SF-268 = tested on: SF-268
MOLT-4 = tested on: MOLT-4
SF-539 = tested on: SF-539
PC-3 = tested on: PC-3
HOP-62 = tested on: HOP-62
SNB-19 = tested on: SNB-19
U-251 = tested on: U-251
LOX IMVI = tested on: LOX IMVI
IGROV-1 = tested on: IGROV-1
NCI-H226 = tested on: NCI-H226
SK-MEL-5 = tested on: SK-MEL-5
SN12C = tested on: SN12C
HCT-116 = tested on: HCT-116
A549 = tested on: A549
RPMI-8226 = tested on: RPMI-8226
MCF7 = tested on: MCF7
HOP-92 = tested on: HOP-92

CC(N/N=C(\S)N1CCCC1)c1cccnn1 (stereo unspecified)
GI50 (A498): 4.91 µM (inactive) | GI50 (MDA-MB-231): 1.03 µM (active) | GI50 (COLO 205): 0.376 µM (active) | GI50 (SF-268): 0.259 µM (active) | GI50 (MOLT-4): 0.351 µM (active) | GI50 (SF-539): 0.215 µM (active) | GI50 (PC-3): 0.375 µM (active) | GI50 (HOP-62): 0.312 µM (active) | GI50 (SNB-19): 0.513 µM (active) | GI50 (U-251): 0.358 µM (active) | GI50 (LOX IMVI): 0.444 µM (active) | GI50 (IGROV-1): 0.43 µM (active) | GI50 (NCI-H226): 1.13 µM (inactive) | GI50 (SK-MEL-5): 0.279 µM (active) | GI50 (SN12C): 0.778 µM (active) | GI50 (HCT-116): 0.335 µM (active) | GI50 (A549): 0.342 µM (active) | GI50 (RPMI-8226): 0.434 µM (active) | GI50 (MCF7): 0.308 µM (active)

Cc1ccc(/C(O)=C/c2nc3ccccc3oc2=O)cc1
GI50 (A498): 78.3 µM (inactive) | GI50 (MDA-MB-231): > 100 µM (inactive) | GI50 (COLO 205): 87.7 µM (inactive) | GI50 (SF-268): > 100 µM (inactive) | GI50 (MOLT-4): 45.4 µM (inactive) | GI50 (SF-539): > 100 µM (inactive) | GI50 (PC-3): 50.1 µM (inactive) | GI50 (HOP-62): > 100 µM (inactive) | GI50 (SNB-19): > 100 µM (inactive) | GI50 (U-251): > 100 µM (inactive) | GI50 (IGROV-1): > 100 µM (inactive) | GI50 (NCI-H226): > 100 µM (inactive) | GI50 (SK-MEL-5): 19.2 µM (inactive) | GI50 (SN12C): > 100 µM (inactive) | GI50 (HCT-116): 75.3 µM (inactive) | GI50 (A549): > 100 µM (inactive) | GI50 (MCF7): 47.6 µM (inactive)

Cc1ccc(S(=O)(=O)Oc2cc(S(=O)(=O)O)cc3cc(S(=O)(=O)O)cc(N)c23)cc1
GI50 (A498): > 100 µM (inactive) | GI50 (MDA-MB-231): > 100 µM (inactive) | GI50 (COLO 205): > 100 µM (inactive) | GI50 (HOP-92): 22 µM (inactive) | GI50 (SF-268): > 100 µM (inactive) | GI50 (SF-539): > 100 µM (inactive) | GI50 (PC-3): > 100 µM (inactive) | GI50 (HOP-62): > 100 µM (inactive) | GI50 (SNB-19): > 100 µM (inactive) | GI50 (U-251): > 100 µM (inactive) | GI50 (LOX IMVI): > 100 µM (inactive) | GI50 (IGROV-1): > 100 µM (inactive) | GI50 (NCI-H226): > 100 µM (inactive) | GI50 (SK-MEL-5): > 100 µM (inactive) | GI50 (SN12C): > 100 µM (inactive) | GI50 (HCT-116): > 100 µM (inactive) | GI50 (A549): > 100 µM (inactive) | GI50 (RPMI-8226): > 100 µM (inactive) | GI50 (MCF7): > 100 µM (inactive)

O=C1/C(=C/c2cccs2)NC(=S)N1CN1CCCCC1
GI50 (A498): > 100 µM (inactive) | GI50 (MDA-MB-231): > 100 µM (inactive) | GI50 (COLO 205): 17.4 µM (inactive) | GI50 (HOP-92): 77.1 µM (inactive) | GI50 (SF-268): > 100 µM (inactive) | GI50 (MOLT-4): 55.5 µM (inactive) | GI50 (PC-3): 98.2 µM (inactive) | GI50 (HOP-62): > 100 µM (inactive) | GI50 (SNB-19): 29.7 µM (inactive) | GI50 (U-251): 85.9 µM (inactive) | GI50 (LOX IMVI): 33 µM (inactive) | GI50 (IGROV-1): 67.1 µM (inactive) | GI50 (NCI-H226): 78.2 µM (inactive) | GI50 (SK-MEL-5): 35.3 µM (inactive) | GI50 (SN12C): 97.5 µM (inactive) | GI50 (HCT-116): 33 µM (inactive) | GI50 (A549): > 100 µM (inactive) | GI50 (RPMI-8226): 28.9 µM (inactive) | GI50 (MCF7): 28.2 µM (inactive)

C[C@]12CC[C@H](O)CC1=CC[C@@H]1C2CC[C@]2(C)c3nn(-c4ccc(F)cc4)nc3CC12 (stereo partly specified)
GI50 (A498): 60.1 µM (inactive) | GI50 (MDA-MB-231): > 100 µM (inactive) | GI50 (COLO 205): 46.5 µM (inactive) | GI50 (HOP-92): > 100 µM (inactive) | GI50 (SF-268): 73.8 µM (inactive) | GI50 (MOLT-4): 96.4 µM (inactive) | GI50 (SF-539): 18.2 µM (inactive) | GI50 (PC-3): 52.2 µM (inactive) | GI50 (HOP-62): 80.7 µM (inactive) | GI50 (SNB-19): 73.3 µM (inactive) | GI50 (U-251): 95.5 µM (inactive) | GI50 (IGROV-1): > 100 µM (inactive) | GI50 (NCI-H226): 44.2 µM (inactive) | GI50 (SK-MEL-5): 52.8 µM (inactive) | GI50 (SN12C): 71 µM (inactive) | GI50 (HCT-116): 67.3 µM (inactive) | GI50 (A549): 79.4 µM (inactive) | GI50 (MCF7): > 100 µM (inactive)

COc1ccc2c(=O)c3cc([N+](=O)[O-])ccc3n(C)c2c1
GI50 (A498): > 100 µM (inactive) | GI50 (MDA-MB-231): > 100 µM (inactive) | GI50 (COLO 205): > 100 µM (inactive) | GI50 (HOP-92): > 100 µM (inactive) | GI50 (SF-268): > 100 µM (inactive) | GI50 (MOLT-4): > 100 µM (inactive) | GI50 (SF-539): > 100 µM (inactive) | GI50 (PC-3): > 100 µM (inactive) | GI50 (SNB-19): > 100 µM (inactive) | GI50 (U-251): > 100 µM (inactive) | GI50 (LOX IMVI): > 100 µM (inactive) | GI50 (IGROV-1): > 100 µM (inactive) | GI50 (NCI-H226): > 100 µM (inactive) | GI50 (SK-MEL-5): > 100 µM (inactive) | GI50 (SN12C): > 100 µM (inactive) | GI50 (A549): > 100 µM (inactive) | GI50 (RPMI-8226): > 100 µM (inactive) | GI50 (MCF7): > 100 µM (inactive)

COC(=O)[C@H](C)NC(=O)[C@H](NS(=O)(=O)c1nc2ccccc2s1)c1ccccc1
GI50 (MDA-MB-231): 25.9 µM (inactive) | GI50 (COLO 205): 13.1 µM (inactive) | GI50 (HOP-92): 12.6 µM (inactive) | GI50 (SF-268): 15.1 µM (inactive) | GI50 (MOLT-4): 29 µM (inactive) | GI50 (SF-539): 15.6 µM (inactive) | GI50 (PC-3): 38.8 µM (inactive) | GI50 (HOP-62): 29.4 µM (inactive) | GI50 (SNB-19): 27.4 µM (inactive) | GI50 (U-251): 20.5 µM (inactive) | GI50 (LOX IMVI): 15.6 µM (inactive) | GI50 (IGROV-1): 49.3 µM (inactive) | GI50 (NCI-H226): 14.5 µM (inactive) | GI50 (SK-MEL-5): 15.8 µM (inactive) | GI50 (HCT-116): 44.3 µM (inactive) | GI50 (RPMI-8226): 31 µM (inactive) | GI50 (MCF7): 34 µM (inactive)

C(=N\N=C1NCCN1)/c1ccc2ccccc2c1
GI50 (A498): 14 µM (inactive) | GI50 (MDA-MB-231): 16.4 µM (inactive) | GI50 (COLO 205): 6.84 µM (inactive) | GI50 (HOP-92): 0.174 µM (active) | GI50 (SF-268): 17.9 µM (inactive) | GI50 (MOLT-4): 10.2 µM (inactive) | GI50 (SF-539): 19 µM (inactive) | GI50 (PC-3): 14.3 µM (inactive) | GI50 (HOP-62): 16.1 µM (inactive) | GI50 (U-251): 13.9 µM (inactive) | GI50 (LOX IMVI): 12.7 µM (inactive) | GI50 (IGROV-1): 9.95 µM (inactive) | GI50 (NCI-H226): 21 µM (inactive) | GI50 (SK-MEL-5): 13.2 µM (inactive) | GI50 (SN12C): 16.9 µM (inactive) | GI50 (HCT-116): 15.4 µM (inactive) | GI50 (A549): 14.4 µM (inactive) | GI50 (RPMI-8226): 12 µM (inactive) | GI50 (MCF7): 15.3 µM (inactive)
